{"source": "ChEMBL document CHEMBL1777735", "about": "“Lipophilicity of acidic compounds: impact of ion pair partitioning on drug design” (Bioorg Med Chem Lett, 2011)", "key": {"[1]": {"experiment": "Lipophilicity, log P of the compound", "format": "physicochemical", "settings": "octanol/water"}, "[2]": {"experiment": "1-Octanol-water distribution coefficient, log D of the compound at pH 7.4 by shake-flask method", "format": "physicochemical"}, "[3]": {"experiment": "1-Octanol-sodium citrate buffer distribution coefficient, log D of the compound at pH 5.5 by shake-flask method", "format": "physicochemical"}, "[4]": {"experiment": "Plasma protein binding in human", "format": "ADME, cell-free", "settings": "read-out: PPB (converted)"}, "[5]": {"settings": "1-octanol/sodium citrate buffer, read-out: logD"}}, "data": [{"molecule": "CN(C)S(=O)(=O)NC(=O)CCCc1c(-c2ccc(F)cc2)[nH]c2ccc(C#N)cc12", "values": [{"measurement": "logP", "setting": "[1]", "value": 2.6}, {"measurement": "logD", "setting": "[2]", "value": 2.8}, {"measurement": "logD", "setting": "[3]; octanol/water", "value": 3.7}, {"measurement": "fraction unbound", "setting": "[4]", "value": 0.004}]}, {"molecule": "CC(=O)c1ccc(S(=O)(=O)NC(=O)NC2CCCCC2)cc1", "note": "[ACETOHEXAMIDE]", "values": [{"measurement": "logP", "setting": "[1]; read-out: logP", "value": 2.4}, {"measurement": "logD", "setting": "[2]", "value": -0.3}, {"measurement": "logD", "setting": "[3]; [5]", "value": 1.3}, {"measurement": "fraction unbound", "setting": "[4]", "value": 0.25}]}, {"molecule": "CN1C(C(=O)Nc2ccccn2)=C(O)c2ccccc2S1(=O)=O", "note": "[PIROXICAM]", "values": [{"measurement": "logD", "setting": "[2]", "value": -0.3}, {"measurement": "logD", "setting": "[3]; [5]", "value": 1.1}, {"measurement": "fraction unbound", "setting": "[4]", "value": 0.007}]}, {"molecule": "O=C(O)CCCc1ccc(N(CCCl)CCCl)cc1", "note": "[CHLORAMBUCIL]", "values": [{"measurement": "logD", "setting": "[2]", "value": 1.4}, {"measurement": "logD", "setting": "[3]; [5]", "value": 3.2}, {"measurement": "fraction unbound", "setting": "[4]", "value": 0.01}]}, {"molecule": "COc1ccc(Cl)cc1C(=O)NCCc1ccc(S(=O)(=O)NC(=O)NC2CCCCC2)cc1", "note": "[GLYBURIDE]", "values": [{"measurement": "logD", "setting": "[2]", "value": 2.2}, {"measurement": "logD", "setting": "[3]; [5]", "value": 3.5}, {"measurement": "fraction unbound", "setting": "[4]", "value": 0.002}]}, {"molecule": "O=C(c1ccccc1)c1ccc2n1CCC2C(=O)O", "note": "(stereo unspecified) [KETOROLAC]", "values": [{"measurement": "logP", "setting": "[1]; read-out: logP", "value": 2.7}, {"measurement": "logD", "setting": "[2]", "value": -1}, {"measurement": "logD", "setting": "[3]; [5]", "value": 0.6}, {"measurement": "fraction unbound", "setting": "[4]", "value": 0.008}]}, {"molecule": "CCCCC1=NC2(CCCC2)C(=O)N1Cc1ccc(-c2ccccc2-c2nnn[nH]2)cc1", "note": "[IRBESARTAN]", "values": [{"measurement": "logD", "setting": "[2]", "value": 0.9}, {"measurement": "logD", "setting": "[3]; [5]", "value": 2.4}, {"measurement": "fraction unbound", "setting": "[4]", "value": 0.02}]}, {"molecule": "CCCCc1nc(Cl)c(CO)n1Cc1ccc(-c2ccccc2-c2nn[nH]n2)cc1", "note": "[LOSARTAN]", "values": [{"measurement": "logD", "setting": "[2]", "value": 0.6}, {"measurement": "logD", "setting": "[3]; [5]", "value": 2.2}, {"measurement": "fraction unbound", "setting": "[4]", "value": 0.02}]}, {"molecule": "O=C(O)CCc1nc(-c2ccccc2)c(-c2ccccc2)o1", "note": "[OXAPROZIN]", "values": [{"measurement": "logP", "setting": "[1]; read-out: logP", "value": 3.1}, {"measurement": "logD", "setting": "[2]", "value": 1}, {"measurement": "logD", "setting": "[3]; [5]", "value": 2.5}, {"measurement": "fraction unbound", "setting": "[4]", "value": "< 0.001"}]}, {"molecule": "CCOc1cc(CC(=O)N[C@@H](CC(C)C)c2ccccc2N2CCCCC2)ccc1C(=O)O", "note": "[REPAGLINIDE]", "values": [{"measurement": "logD", "setting": "[2]", "value": 2.2}, {"measurement": "logD", "setting": "[3]; [5]", "value": 3.2}, {"measurement": "fraction unbound", "setting": "[4]", "value": 0.009}]}, {"molecule": "Cc1nnc(NS(=O)(=O)c2ccc(N)cc2)s1", "note": "[SULFAMETHIZOLE]", "values": [{"measurement": "logD", "setting": "[2]", "value": -1.6}, {"measurement": "logD", "setting": "[3]; [5]", "value": 0}, {"measurement": "fraction unbound", "setting": "[4]", "value": 0.065}]}, {"molecule": "Cc1ccc(C(=O)c2ccc(CC(=O)O)n2C)cc1", "note": "[TOLMETIN]", "values": [{"measurement": "logP", "setting": "[1]; read-out: logP", "value": 2.7}, {"measurement": "logD", "setting": "[2]", "value": -1}, {"measurement": "logD", "setting": "[3]; [5]", "value": 0.8}, {"measurement": "fraction unbound", "setting": "[4]", "value": 0.003}]}, {"molecule": "CCOC(=O)[C@H](CCc1ccccc1)N[C@H]1CCc2ccccc2N(CC(=O)O)C1=O", "note": "[BENAZEPRIL]", "values": [{"measurement": "fraction unbound", "setting": "[4]", "value": 0.041}]}, {"molecule": "Cc1ccc(S(=O)(=O)NC(=O)NN2CCCCCC2)cc1", "note": "[TOLAZAMIDE]", "values": [{"measurement": "logD", "setting": "[2]", "value": 0}, {"measurement": "logD", "setting": "[3]; [5]", "value": 1.2}, {"measurement": "fraction unbound", "setting": "[4]", "value": 0.06}]}, {"molecule": "Cc1cc(SCc2sc(-c3ccc(C(F)(F)F)cc3)nc2C)ccc1OCC(=O)O", "note": "[GW501516]", "values": [{"measurement": "logD", "setting": "[2]", "value": 2.2}, {"measurement": "logD", "setting": "[3]; [5]", "value": 3.5}]}, {"molecule": "COc1ccc2c(c1)c(CC(=O)O)c(C)n2C(=O)c1ccc(Cl)cc1", "note": "[INDOMETHACIN]", "values": [{"measurement": "logP", "setting": "[1]; read-out: logP", "value": 3.8}, {"measurement": "logD", "setting": "[3]; [5]", "value": 2.7}]}, {"molecule": "CCc1cccc2c3c([nH]c12)C(CC)(CC(=O)O)OCC3", "note": "(stereo unspecified) [ETODOLAC]", "values": [{"measurement": "fraction unbound", "setting": "[4]", "value": 0.009}]}, {"molecule": "CCOC(=O)[C@H](CCc1ccccc1)N[C@@H](C)C(=O)N1[C@H](C(=O)O)C[C@@H]2CCC[C@@H]21", "values": [{"measurement": "fraction unbound", "setting": "[4]", "value": 0.105}]}, {"molecule": "CCCCNc1cc(C(=O)O)cc(S(N)(=O)=O)c1Oc1ccccc1", "note": "[BUMETANIDE]", "values": [{"measurement": "logD", "setting": "[2]", "value": -0.6}, {"measurement": "logD", "setting": "[3]; [5]", "value": 1.1}, {"measurement": "fraction unbound", "setting": "[4]", "value": 0.016}]}, {"molecule": "O=C(O)CCn1c2c(c3ccccc31)C[C@H](NS(=O)(=O)c1ccc(F)cc1)CC2", "note": "[RAMATROBAN]", "values": [{"measurement": "logP", "setting": "[1]; read-out: logP", "value": 3}, {"measurement": "logD", "setting": "[2]", "value": 0.5}, {"measurement": "logD", "setting": "[3]; [5]", "value": 2.3}, {"measurement": "fraction unbound", "setting": "[4]", "value": 0.025}]}, {"molecule": "CCOC(=O)[C@H](CCc1ccccc1)N[C@@H](C)C(=O)N1CCC[C@H]1C(=O)O", "values": [{"measurement": "logD", "setting": "[2]", "value": -1.8}, {"measurement": "logD", "setting": "[3]; [5]", "value": -0.5}, {"measurement": "fraction unbound", "setting": "[4]", "value": 0.5}]}]}
